In the supplement of paper PMC10307832:

Assays:
Experiment in all cases: relative viability (nuclei count vs DMSO), 5 days (fraction); higher = more cells survive
Dasatinib + Navitoclax = compound: Cc1nc(Nc2ncc(C(=O)Nc3c(C)cccc3Cl)s2)cc(N2CCN(CCO)CC2)n1 [Dasatinib] + CC1(C)CCC(c2ccc(Cl)cc2)=C(CN2CCN(c3ccc(C(=O)NS(=O)(=O)c4ccc(N[C@H](CCN5CCOCC5)CSc5ccccc5)c(S(=O)(=O)C(F)(F)F)c4)cc3)CC2)C1 [Navitoclax] (partner 0.5 µM)
Outline: (§1)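 For relative viability, nuclei counts in treated wells were divided by those in vehicle wells. Lung cancer cell lines had been pin-tool dosed in 1536-well plates the day after seeding and cultured for 5 days, then fixed and stained in one step (final 0.05% Triton X-100, 1% formaldehyde, 1 ug/ml Hoechst) and imaged at 4×. Doses were one drug alone or a fixed anchor-drug dose plus five library-drug doses (not always all listed) in √10 steps, and values are duplicate-plate medians.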

XMD13-2 + Bortezomib = compound: C1CC1C(=O)NC2=NNC3=C2C=CC(=C3)C4=CC(=CC=C4)C(=O)NC5CC5 [XMD13-2] + CC(C)C[C@H](NC(=O)[C@H](Cc1ccccc1)NC(=O)c1cnccn1)B(O)O [Bortezomib] (partner 0.002 µM)
Outline: as §1

ALW-II-49-7 + Linsitinib = compound: Cc1ccc(C(=O)Nc2cccc(C(F)(F)F)c2)cc1Nc1cncc(C(N)=O)c1 [ALW-II-49-7] + C[C@]1(O)C[C@@H](c2nc(-c3ccc4ccc(-c5ccccc5)nc4c3)c3c(N)nccn32)C1 [Linsitinib] (partner 1 µM)
Outline: as §1

XMD13-2 + AZD7762 = compound: C1CC1C(=O)NC2=NNC3=C2C=CC(=C3)C4=CC(=CC=C4)C(=O)NC5CC5 [XMD13-2] + NC(=O)Nc1cc(-c2cccc(F)c2)sc1C(=O)N[C@H]1CCCNC1 [AZD7762] (partner 0.2 µM)
Outline: as §1

Cell Line | relative viability (Dasatinib + Navitoclax; first compound 0.005 µM) | relative viability (Dasatinib + Navitoclax; first compound 0.01581 µM) | relative viability (Dasatinib + Navitoclax; first compound 0.05 µM) | relative viability (Dasatinib + Navitoclax; first compound 0.1581 µM) | relative viability (Dasatinib + Navitoclax; first compound 0.5 µM) | relative viability (XMD13-2 + Bortezomib; first compound 0.05 µM) | relative viability (XMD13-2 + Bortezomib; first compound 0.1581 µM) | relative viability (XMD13-2 + Bortezomib; first compound 0.5 µM) | relative viability (XMD13-2 + Bortezomib; first compound 1.581 µM) | relative viability (XMD13-2 + Bortezomib; first compound 5 µM) | relative viability (ALW-II-49-7 + Linsitinib; first compound 0.08 µM) | relative viability (ALW-II-49-7 + Linsitinib; first compound 0.253 µM) | relative viability (ALW-II-49-7 + Linsitinib; first compound 0.8 µM) | relative viability (ALW-II-49-7 + Linsitinib; first compound 2.53 µM) | relative viability (ALW-II-49-7 + Linsitinib; first compound 8 µM) | relative viability (XMD13-2 + AZD7762; first compound 0.05 µM) | relative viability (XMD13-2 + AZD7762; first compound 0.1581 µM) | relative viability (XMD13-2 + AZD7762; first compound 0.5 µM) | relative viability (XMD13-2 + AZD7762; first compound 1.581 µM) | relative viability (XMD13-2 + AZD7762; first compound 5 µM)
NCI-H1792 | 0.627 | 0.606 | 0.541 | 0.402 | 0.296 | 1.16 | 0.996 | 1 | 0.927 | 1.15 | 0.402 | 0.338 | 0.421 | 0.321 | 0.371 | 0.854 | 0.78 | 0.762 | 0.634 | 0.846
NCI-H1915 | 0.803 | 0.728 | 0.75 | 0.44 | 0.261 | 1.06 | 1.01 | 1.01 | 0.979 | 1.01 | 1.13 | 1.13 | 1.09 | 1 | 0.825 | 0.675 | 0.774 | 0.708 | 0.696 | 0.646
NCI-H1975 | 0.895 | 1.02 | 1.03 | 0.412 | 0.308 | 0.45 | 0.384 | 0.345 | 0.392 | 0.445 | 1.01 | 1 | 0.892 | 0.863 | 0.956 | 0.857 | 0.869 | 0.735 | 0.664 | 0.799
NCI-H1993 | 0.872 | 0.7 | 0.724 | 0.581 | 0.736 | 1.42 | 1.08 | 1.02 | 0.972 | 1.04 | 0.753 | 0.691 | 0.737 | 0.792 | 0.878 | 0.926 | 0.595 | 0.387 | 0.63 | 0.791
NCI-H2085 | 0.757 | 0.929 | 0.737 | 0.411 | 0.245 | 1.09 | 1.07 | 1.15 | 0.93 | 1.1 | 0.669 | 0.866 | 0.843 | 0.84 | 0.942 | 0.993 | 0.995 | 1.04 | 0.848 | 1.09
NCI-H2087 | 0.997 | 0.873 | 1.07 | 0.972 | 0.532 | 0.917 | 1.25 | 1.08 | 0.782 | 0.856 | 1.14 | 0.962 | 0.871 | 0.896 | 0.919 | 1.31 | 1.39 | 1.62 | 1.3 | 1.49
NCI-H2126 | 0.868 | 0.76 | 0.804 | 0.621 | 0.374 | 1.16 | 1.09 | 1.18 | 1.05 | 1.13 | 0.656 | 0.733 | 0.746 | 0.7 | 0.717 | 1.1 | 1.04 | 0.98 | 1.04 | 0.996
NCI-H2347 | 0.875 | 0.692 | 0.467 | 0.285 | 0.228 | 1.02 | 0.977 | 1.09 | 0.952 | 1.09 | 1 | 0.974 | 1.08 | 0.868 | 0.737 | 0.971 | 0.759 | 0.888 | 0.735 | 0.822
NCI-H2405 | 0.684 | 0.424 | 0.254 | 0.165 | 0.116 | 1.07 | 0.964 | 0.957 | 0.926 | 0.991 | 0.892 | 1.01 | 0.958 | 0.376 | 0.9 | 0.849 | 0.712 | 0.728 |  | 0.8
NCI-H3122 | 1.03 | 1.01 | 1.04 | 0.977 | 0.792 | 1.06 | 1.05 | 1.02 | 1.1 | 0.985 | 1.02 | 0.934 | 1.1 | 1.18 | 1.13 | 1.01 | 0.973 | 1.1 | 1 | 0.899
PC-3 [JPC-3] | 0.785 | 0.818 | 0.951 | 0.788 | 0.456 | 0.807 | 0.778 | 0.884 | 0.871 | 0.867 | 1.01 | 0.914 | 0.935 | 0.995 | 0.952 | 0.818 | 0.868 | 0.9 |  | 0.718
PC-14 | 0.976 | 0.982 | 1.09 | 0.647 | 0.0883 | 0.903 | 0.888 | 0.828 | 0.806 | 0.916 | 0.933 | 0.821 | 0.933 | 0.979 | 0.94 | 0.392 | 0.337 | 0.464 | 0.329 | 0.446
RERF-LC-KJ | 1.11 | 0.537 | 0.855 | 0.669 | 0.656 | 1.08 | 1.05 | 1.2 | 0.97 | 1.14 | 0.884 | 0.898 | 0.873 | 0.905 | 0.888 | 1.07 | 0.874 | 1.22 | 0.922 | 0.956
